Laboratory results as given in patent US6737383B1, “Herbicidal oxadiazolidines” (priority 1999, dated 2004).

Key:
crabgrass = test: Test B pre/postemergence crabgrass; assay type: in vivo, Digitaria sanguinalis; details: for Crabgrass plant response rating (0 to 10 scale): 0 is no effect
How it was run: (§1)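 Test chemicals in a non-phytotoxic solvent mixture with surfactant were sprayed preemergence onto planted seeds and postemergence onto plants 2 to 18 cm tall (1- to 4-leaf stage). After twelve to sixteen days in a greenhouse, injury was visually rated against untreated controls from 0 (no effect) to 10 (complete control).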

purple nutsedge = test: Test B pre/postemergence purple nutsedge; assay type: in vivo, Cyperus rotundus; details: for Nutsedge plant response rating (0 to 10 scale): 0 is no effect
How it was run: as §1

duck salad = test: Test B flood test duck salad; assay type: in vivo, Heteranthera limosa
How it was run: (§2)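 Plants were grown to the 2-leaf stage before treatment with test chemical, then held in a greenhouse for twelve to sixteen days. Injury was visually rated against untreated controls on a 0–10 scale, where 0 is no effect and 10 is complete control.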

bamyardgrass = test: Test B flood test barnyardgrass; assay type: in vivo, Echinochloa crus-galli
How it was run: as §2

[1] = Postemergence, Rate 125 g/ha, scale of 0 to 10 where 0 is no effect and 10 is complete control
[2] = Preemergence, Rate 62 g/ha, scale 0 to 10 (0 no effect, 10 complete control)
[3] = Preemergence, Rate 125 g/ha, 10 is complete control
[4] = Preemergence, Rate 250 g/ha, scale of 0 to 10 where 0 is no effect and 10 is complete control
[5] = Preemergence, Rate 500 g/ha, scale 0 to 10 (0 no effect, 10 complete control)
[6] = Rate 62 g/ha, Postemergence, scale of 0 to 10 where 0 is no effect and 10 is complete control
[7] = Rate 250 g/ha, Postemergence, scale 0 to 10, 0 is no effect, 10 is complete control
[8] = Rate 500 g/ha, Postemergence, scale 0 to 10, 0 no effect, 10 complete control
[9] = Postemergence (flood test species), Rate 125 g/ha, scale of 0 to 10 where 0 is no effect and 10 is complete control
[10] = Rate 62 g/ha, Postemergence section, flood test species, scale of 0 to 10 where 0 is no effect and 10 is complete control
[11] = Rate 250 g/ha, Postemergence (flood test), scale 0 to 10, 0 is no effect, 10 is complete control
[12] = Rate 250 g/ha, headed Pre-emergence (flood test species), scale 0 to 10 (0 no effect, 10 complete control)
[13] = Rate 500 g/ha, headed Pre-emergence (flood test species), scale 0 to 10 (0 no effect, 10 complete control)
[14] = Rate 500 g/ha, listed under Postemergence (flood test species), scale 0 to 10, 0 no effect, 10 complete control
[15] = Rate 1000 g/ha, Pre-emergence (as headed), scale 0 to 10
[16] = Rate 2000 g/ha, Pre-emergence (as headed), scale 0 to 10
[17] = Rate 2000 g/ha, Pre-emergence (as headed), scale 0 to 10, 0 no effect, 10 complete control
[18] = Preemergence, Rate 250 g/ha, scale 0 to 10, 0 is no effect, 10 is complete control
[19] = Rate 500 g/ha, Postemergence, scale 0 to 10
[20] = Rate 500 g/ha, listed under Postemergence (flood test species), scale 0 to 10
[21] = Rate 31 g/ha, Postemergence section (flood test species), scale 0 to 10
[22] = Rate 250 g/ha, Pre-emergence, flood-test species, scale 0 to 10, 0 is no effect, 10 is complete control
[23] = Preemergence, Rate 62 g/ha, scale of 0 to 10 where 0 is no effect and 10 is complete control
[24] = Rate 125 g/ha, Postemergence, scale 0 to 10
[25] = Rate 62 g/ha, headed Pre-emergence (flood test species), scale 0 to 10 (0 no effect, 10 complete control)
[26] = Rate 125 g/ha, Pre-emergence, flood test species, scale 0 to 10 where 0 is no effect and 10 is complete control
[27] = Preemergence, Rate 500 g/ha, scale of 0 to 10 where 0 is no effect and 10 is complete control

CC(C)N(C(=O)n1oc(=O)n(-c2cnn(C)c2Cl)c1=O)c1ccccc1 [Compound 122]
8: Plant response rating, Crabgrass (crabgrass; [4]) | Crabgrass plant response rating (crabgrass; [5])
0: Crabgrass plant response rating (crabgrass; [6]) | Nutsedge plant response rating (purple nutsedge; [1]) | Nutsedge plant response rating (purple nutsedge; [2]) | Nutsedge plant response rating (0 to 10 scale) (purple nutsedge; [3]) | Plant response rating, Nutsedge (purple nutsedge; [4]) | Nutsedge plant response rating (purple nutsedge; [5]) | Nutsedge plant response rating (purple nutsedge; [6]) | Plant response rating, Nutsedge (purple nutsedge; [7]) | Nutsedge plant response rating (purple nutsedge; [8]) | Ducksalad plant response rating (duck salad; [9]) | Ducksalad plant response rating (duck salad; [10]) | Plant response rating, Ducksalad (duck salad; [11]) | Ducksalad plant response rating (duck salad; [12]) | Plant response rating, Ducksalad (duck salad; [13]) | Ducksalad plant response rating (duck salad; [14]) | Ducksalad plant response rating (duck salad; [15]) | Ducksalad plant response rating (duck salad; [16]) | Barnyardgrass plant response rating (bamyardgrass; [9]) | Barnyardgrass plant response rating (bamyardgrass; Postemergence, Rate 62 g/ha, scale 0 to 10, 0 is no effect, 10 is complete control) | Plant response rating, Barnyardgrass (bamyardgrass; [11]) | Barnyardgrass plant response rating (bamyardgrass; [12]) | Plant response rating, Barnyardgrass (bamyardgrass; [13]) | Barnyardgrass plant response rating (bamyardgrass; [14]) | Barnyardgrass plant response rating (bamyardgrass; [15]) | Barnyardgrass plant response rating (bamyardgrass; [17])
5: Crabgrass plant response rating (crabgrass; [8])
4: Crabgrass plant response rating (crabgrass; [2]) | Crabgrass plant response rating (0 to 10 scale) (crabgrass; [3]) | Plant response rating, Crabgrass (crabgrass; [7])
3: Crabgrass plant response rating (crabgrass; [1])

CCOC(=O)Cn1c(=O)on(C(=O)N(c2ccc(F)cc2)C(C)C)c1=O [Compound 128]
0: Crabgrass plant response rating (crabgrass; [1]) | Crabgrass plant response rating (crabgrass; [2]) | Crabgrass plant response rating (0 to 10 scale) (crabgrass; [3]) | Crabgrass plant response rating (crabgrass; [18]) | Crabgrass plant response rating (crabgrass; [5]) | Crabgrass plant response rating (crabgrass; [6]) | Plant response rating, Crabgrass (crabgrass; [7]) | Crabgrass plant response rating (crabgrass; [19]) | Nutsedge plant response rating (purple nutsedge; [1]) | Nutsedge plant response rating (purple nutsedge; [2]) | Nutsedge plant response rating (0 to 10 scale) (purple nutsedge; [3]) | Nutsedge plant response rating (purple nutsedge; [18]) | Nutsedge plant response rating (purple nutsedge; [5]) | Nutsedge plant response rating (purple nutsedge; [6]) | Plant response rating, Nutsedge (purple nutsedge; [7]) | Nutsedge plant response rating (purple nutsedge; [19]) | Ducksalad plant response rating (duck salad; [9]) | Plant response rating, Ducksalad (duck salad; [11]) | Ducksalad plant response rating (duck salad; [20]) | Barnyardgrass plant response rating (bamyardgrass; [9]) | Plant response rating, Barnyardgrass (bamyardgrass; [11]) | Barnyardgrass plant response rating (bamyardgrass; [14])

Cc1ccccc1Cn1c(=O)on(C(=O)N(c2ccc(Cl)cc2)C(C)C)c1=O [Compound 136]
0: Crabgrass plant response rating (crabgrass; [2]) | Nutsedge plant response rating (purple nutsedge; [1]) | Nutsedge plant response rating (purple nutsedge; [2]) | Nutsedge plant response rating (0 to 10 scale) (purple nutsedge; [3]) | Nutsedge plant response rating (purple nutsedge; [18]) | Nutsedge plant response rating (purple nutsedge; [6]) | Plant response rating, Nutsedge (purple nutsedge; [7]) | Nutsedge plant response rating (purple nutsedge; [19]) | Ducksalad plant response rating (duck salad; [9]) | Ducksalad plant response rating (duck salad; [10]) | Plant response rating, Ducksalad (duck salad; [11]) | Ducksalad plant response rating (duck salad; [20]) | Barnyardgrass plant response rating (bamyardgrass; [9]) | Barnyardgrass plant response rating (bamyardgrass; [10]) | Plant response rating, Barnyardgrass (bamyardgrass; [11]) | Barnyardgrass plant response rating (bamyardgrass; [14])
4: Crabgrass plant response rating (0 to 10 scale) (crabgrass; [3])
1: Crabgrass plant response rating (crabgrass; [6])
2: Crabgrass plant response rating (crabgrass; [1])
9: Crabgrass plant response rating (crabgrass; [19])
8: Crabgrass plant response rating (crabgrass; [5]) | Plant response rating, Crabgrass (crabgrass; [7])
7: Crabgrass plant response rating (crabgrass; [18])

C=C(C)Cn1c(=O)on(C(=O)N(c2ccc(F)cc2)C(C)C)c1=O [Compound 139]
0: Nutsedge plant response rating (purple nutsedge; [1]) | Nutsedge plant response rating (purple nutsedge; [2]) | Nutsedge plant response rating (0 to 10 scale) (purple nutsedge; [3]) | Nutsedge plant response rating (purple nutsedge; [18]) | Nutsedge plant response rating (purple nutsedge; [5]) | Nutsedge plant response rating (purple nutsedge; [6]) | Plant response rating, Nutsedge (purple nutsedge; [7]) | Ducksalad plant response rating (duck salad; [9]) | Ducksalad plant response rating (duck salad; [21]) | Ducksalad plant response rating (duck salad; [10]) | Plant response rating, Ducksalad (duck salad; [11]) | Ducksalad plant response rating (duck salad; [22]) | Plant response rating, Ducksalad (duck salad; [13]) | Ducksalad plant response rating (duck salad; [15]) | Barnyardgrass plant response rating (bamyardgrass; [9]) | Barnyardgrass plant response rating (bamyardgrass; [21]) | Barnyardgrass plant response rating (bamyardgrass; [10]) | Plant response rating, Barnyardgrass (bamyardgrass; [11]) | Barnyardgrass plant response rating (bamyardgrass; [22]) | Plant response rating, Barnyardgrass (bamyardgrass; [13]) | Barnyardgrass plant response rating (bamyardgrass; [15])
10: Crabgrass plant response rating (0 to 10 scale) (crabgrass; [3]) | Crabgrass plant response rating (crabgrass; [18]) | Crabgrass plant response rating (crabgrass; [5])
6: Barnyardgrass plant response rating (bamyardgrass; [17])
7: Crabgrass plant response rating (crabgrass; [2])
4: Nutsedge plant response rating (purple nutsedge; [19])
9: Plant response rating, Crabgrass (crabgrass; [7]) | Crabgrass plant response rating (crabgrass; [19])
2: Ducksalad plant response rating (duck salad; [16])
8: Crabgrass plant response rating (crabgrass; [1]) | Crabgrass plant response rating (crabgrass; [6])

CC(C)N(C(=O)n1oc(=O)n(-c2nc(Cl)sc2Cl)c1=O)c1ccc(F)cc1 [Compound 160]
0: Crabgrass plant response rating (crabgrass; [1]) | Crabgrass plant response rating (crabgrass; [23]) | Crabgrass plant response rating (0 to 10 scale) (crabgrass; [3]) | Crabgrass plant response rating (crabgrass; [18]) | Crabgrass plant response rating (crabgrass; [5]) | Crabgrass plant response rating (crabgrass; [6]) | Plant response rating, Crabgrass (crabgrass; [7]) | Crabgrass plant response rating (crabgrass; [19]) | Nutsedge plant response rating (purple nutsedge; [1]) | Nutsedge plant response rating (purple nutsedge; [23]) | Nutsedge plant response rating (0 to 10 scale) (purple nutsedge; [3]) | Nutsedge plant response rating (purple nutsedge; [18]) | Nutsedge plant response rating (purple nutsedge; [5]) | Nutsedge plant response rating (purple nutsedge; [6]) | Plant response rating, Nutsedge (purple nutsedge; [7]) | Nutsedge plant response rating (purple nutsedge; [19]) | Ducksalad plant response rating (duck salad; [9]) | Ducksalad plant response rating (duck salad; [10]) | Plant response rating, Ducksalad (duck salad; [11]) | Ducksalad plant response rating (duck salad; [20]) | Barnyardgrass plant response rating (bamyardgrass; [9]) | Barnyardgrass plant response rating (bamyardgrass; [10]) | Plant response rating, Barnyardgrass (bamyardgrass; [11]) | Barnyardgrass plant response rating (bamyardgrass; [20])

Cc1ccccc1-n1c(=O)on(C(=O)N(c2ccc(-c3ccccc3)cc2)C(C)C)c1=O [Compound 187]
0: Crabgrass plant response rating (crabgrass; [23]) | Crabgrass plant response rating (0 to 10 scale) (crabgrass; [3]) | Crabgrass plant response rating (crabgrass; [18]) | Crabgrass plant response rating (crabgrass; [5]) | Crabgrass plant response rating (crabgrass; [6]) | Crabgrass plant response rating (crabgrass; [24]) | Plant response rating (0 to 10; 0 is no effect, 10 is complete control), Crabgrass (crabgrass; Rate 250 g/ha, Postemergence) | Crabgrass plant response rating (crabgrass; [19]) | Nutsedge plant response rating (purple nutsedge; [23]) | Nutsedge plant response rating (0 to 10 scale) (purple nutsedge; [3]) | Nutsedge plant response rating (purple nutsedge; [18]) | Nutsedge plant response rating (purple nutsedge; [5]) | Nutsedge plant response rating (purple nutsedge; [6]) | Nutsedge plant response rating (purple nutsedge; [24]) | Plant response rating (0 to 10; 0 is no effect, 10 is complete control), Nutsedge (purple nutsedge; Rate 250 g/ha, Postemergence) | Nutsedge plant response rating (purple nutsedge; [19]) | Ducksalad plant response rating (duck salad; [25]) | Ducksalad plant response rating (duck salad; [26]) | Ducksalad plant response rating (duck salad; [22]) | Plant response rating, Ducksalad (duck salad; [13]) | Barnyardgrass plant response rating (bamyardgrass; [25]) | Barnyardgrass plant response rating (bamyardgrass; [26]) | Barnyardgrass plant response rating (bamyardgrass; [22]) | Plant response rating, Barnyardgrass (bamyardgrass; [13])

Cc1ccccc1-n1c(=O)on(C(=O)N(c2ccc(S(C)(=O)=O)cc2)C(C)C)c1=O [Compound 203]
0: Crabgrass plant response rating (crabgrass; [23]) | Crabgrass plant response rating (0 to 10 scale) (crabgrass; [3]) | Crabgrass plant response rating (crabgrass; [18]) | Plant response rating, Crabgrass (crabgrass; [27]) | Crabgrass plant response rating (crabgrass; [6]) | Crabgrass plant response rating (crabgrass; [24]) | Plant response rating (0 to 10; 0 is no effect, 10 is complete control), Crabgrass (crabgrass; Rate 250 g/ha, Postemergence) | Crabgrass plant response rating (crabgrass; [19]) | Nutsedge plant response rating (purple nutsedge; [23]) | Nutsedge plant response rating (0 to 10 scale) (purple nutsedge; [3]) | Nutsedge plant response rating (purple nutsedge; [18]) | Plant response rating, Nutsedge (purple nutsedge; [27]) | Nutsedge plant response rating (purple nutsedge; [6]) | Nutsedge plant response rating (purple nutsedge; [24]) | Plant response rating (0 to 10; 0 is no effect, 10 is complete control), Nutsedge (purple nutsedge; Rate 250 g/ha, Postemergence) | Nutsedge plant response rating (purple nutsedge; [19]) | Ducksalad plant response rating (duck salad; [25]) | Ducksalad plant response rating (duck salad; [26]) | Ducksalad plant response rating (duck salad; [22]) | Plant response rating, Ducksalad (duck salad; [13]) | Barnyardgrass plant response rating (bamyardgrass; [25]) | Barnyardgrass plant response rating (bamyardgrass; [26]) | Barnyardgrass plant response rating (bamyardgrass; [22]) | Plant response rating, Barnyardgrass (bamyardgrass; [13])
